In publication PMC4433244, “Interaction of cCMP with the cGK, cAK and MAPK Kinases in Murine Tissues” (PLoS ONE, 2015):

Key:
[1] = biological target: T1, cAKRIα (Mus musculus, UniProt Q9DBC7); assay: 4-AH-cCMP agarose affinity chromatography competed by free cCMP; mass spectrometry and immunoblot (cAKRIα/β antibody); assay type: cell-based
T1 construct: gene Prkar1a; endogenous regulatory subunit in lung tissue lysate

[2] = biological target: T2, cGKII (Mus musculus, UniProt Q61410); assay: (γ-32P) ATP kinase assay with IRAGtide, activation of purified enzyme; assay type: biochemical
T2 construct: gene Prkg2; recombinant murine cGKII expressed in SF9 cells
T2 sequence (Q61410 2-762): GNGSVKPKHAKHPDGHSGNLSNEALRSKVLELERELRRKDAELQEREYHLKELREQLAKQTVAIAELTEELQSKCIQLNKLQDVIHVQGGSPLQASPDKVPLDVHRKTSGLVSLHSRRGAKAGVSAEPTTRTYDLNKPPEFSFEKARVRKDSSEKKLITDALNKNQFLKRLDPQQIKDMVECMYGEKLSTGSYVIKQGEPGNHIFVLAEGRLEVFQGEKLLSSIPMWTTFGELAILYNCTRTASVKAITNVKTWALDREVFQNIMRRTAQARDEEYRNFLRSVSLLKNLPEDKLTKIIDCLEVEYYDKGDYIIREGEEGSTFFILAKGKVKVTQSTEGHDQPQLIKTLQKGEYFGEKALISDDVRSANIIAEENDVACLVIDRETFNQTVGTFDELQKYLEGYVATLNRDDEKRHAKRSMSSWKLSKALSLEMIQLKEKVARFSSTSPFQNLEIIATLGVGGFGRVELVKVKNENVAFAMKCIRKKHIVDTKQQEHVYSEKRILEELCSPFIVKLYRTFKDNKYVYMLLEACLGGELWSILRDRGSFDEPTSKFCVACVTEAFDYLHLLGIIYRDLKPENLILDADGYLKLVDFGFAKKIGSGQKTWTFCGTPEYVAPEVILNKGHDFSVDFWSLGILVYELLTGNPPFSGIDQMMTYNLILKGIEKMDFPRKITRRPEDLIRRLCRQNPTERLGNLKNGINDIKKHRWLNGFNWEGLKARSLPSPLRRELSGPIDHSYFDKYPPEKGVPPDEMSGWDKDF

[3] = biological target: T3, cGKI (Mus musculus, UniProt P0C605)
T3 construct: gene Prkg1
T3 sequence (P0C605 2-671): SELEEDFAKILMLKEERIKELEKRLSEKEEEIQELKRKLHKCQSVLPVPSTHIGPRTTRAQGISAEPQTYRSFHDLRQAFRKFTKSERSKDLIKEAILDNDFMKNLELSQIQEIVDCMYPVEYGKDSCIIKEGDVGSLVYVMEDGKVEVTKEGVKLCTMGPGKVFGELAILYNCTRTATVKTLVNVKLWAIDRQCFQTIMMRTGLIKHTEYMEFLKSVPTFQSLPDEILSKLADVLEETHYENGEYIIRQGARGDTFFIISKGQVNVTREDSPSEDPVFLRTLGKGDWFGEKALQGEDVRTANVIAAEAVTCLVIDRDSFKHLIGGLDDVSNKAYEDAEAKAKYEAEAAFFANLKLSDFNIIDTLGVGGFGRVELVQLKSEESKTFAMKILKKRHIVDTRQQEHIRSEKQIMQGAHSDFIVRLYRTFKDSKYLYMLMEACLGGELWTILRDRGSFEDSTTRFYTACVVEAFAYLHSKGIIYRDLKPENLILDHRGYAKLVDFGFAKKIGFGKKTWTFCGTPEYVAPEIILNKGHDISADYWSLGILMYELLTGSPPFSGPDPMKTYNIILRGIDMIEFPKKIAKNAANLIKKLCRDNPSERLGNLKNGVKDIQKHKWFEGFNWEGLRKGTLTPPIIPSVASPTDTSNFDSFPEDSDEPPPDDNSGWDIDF

T1 sequence (Q9DBC7 2-381): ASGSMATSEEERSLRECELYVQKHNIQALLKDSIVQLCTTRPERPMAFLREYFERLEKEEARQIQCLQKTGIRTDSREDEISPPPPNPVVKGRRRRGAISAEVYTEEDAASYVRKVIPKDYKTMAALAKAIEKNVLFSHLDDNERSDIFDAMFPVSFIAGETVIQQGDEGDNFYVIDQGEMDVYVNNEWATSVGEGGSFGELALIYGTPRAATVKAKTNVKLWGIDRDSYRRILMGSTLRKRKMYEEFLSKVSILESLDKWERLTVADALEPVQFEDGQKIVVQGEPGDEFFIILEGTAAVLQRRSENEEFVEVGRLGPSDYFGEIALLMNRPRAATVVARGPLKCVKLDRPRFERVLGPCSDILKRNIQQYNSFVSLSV

Row | EC50 [2] [µM] | EC50 [3] [nM] | SMILES | 4-AH-cCMP agarose affinity chromatography competed by free cCMP; mass spectromet [1]
1 | 110 ± 8 |  | Nc1ccn([C@@H]2O[C@@H]3COP(=O)(O)O[C@H]3[C@H]2O)c(=O)n1 [cCMP] | Specific binding of cCMP to cAKRIα/β was also detected.
2 |  | 2000 ± 500 | Nc1nc2c(ncn2[C@@H]2O[C@@H]3COP(=O)(O)O[C@H]3[C@H]2O)c(=O)[nH]1 [cGMP] | 
